These are literature values, as cited in patent US20060099667A1, “Method for performing restrained dynamics docking of one or multiple substrates on multi-specific enzymes” (priority 2002, published 2006).

Entries after “also recorded” stand apart in the source; their conditions may differ. Where a name gives a salt, the structure may show the parent alone.

Targets include CYP3A7 (Homo sapiens, UniProt P24462); CYP3A5 (Homo sapiens, UniProt P20815); CYP3A4 (Homo sapiens, UniProt P08684).

Chain of CYP3A7 (P24462 whole entry): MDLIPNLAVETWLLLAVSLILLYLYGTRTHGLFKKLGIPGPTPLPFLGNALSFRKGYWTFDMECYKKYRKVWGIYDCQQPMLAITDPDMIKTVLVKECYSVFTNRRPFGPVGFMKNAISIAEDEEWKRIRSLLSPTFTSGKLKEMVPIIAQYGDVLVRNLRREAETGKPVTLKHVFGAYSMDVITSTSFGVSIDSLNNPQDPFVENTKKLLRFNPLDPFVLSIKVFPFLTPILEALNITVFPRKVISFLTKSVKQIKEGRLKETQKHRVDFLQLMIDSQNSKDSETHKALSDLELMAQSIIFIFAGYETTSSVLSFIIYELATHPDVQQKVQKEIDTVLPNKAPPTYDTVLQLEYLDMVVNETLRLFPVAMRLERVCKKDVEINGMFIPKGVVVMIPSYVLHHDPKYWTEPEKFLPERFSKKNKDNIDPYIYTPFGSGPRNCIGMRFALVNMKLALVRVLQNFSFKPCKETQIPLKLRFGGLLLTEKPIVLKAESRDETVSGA
Chain of CYP3A4 (P08684 whole entry): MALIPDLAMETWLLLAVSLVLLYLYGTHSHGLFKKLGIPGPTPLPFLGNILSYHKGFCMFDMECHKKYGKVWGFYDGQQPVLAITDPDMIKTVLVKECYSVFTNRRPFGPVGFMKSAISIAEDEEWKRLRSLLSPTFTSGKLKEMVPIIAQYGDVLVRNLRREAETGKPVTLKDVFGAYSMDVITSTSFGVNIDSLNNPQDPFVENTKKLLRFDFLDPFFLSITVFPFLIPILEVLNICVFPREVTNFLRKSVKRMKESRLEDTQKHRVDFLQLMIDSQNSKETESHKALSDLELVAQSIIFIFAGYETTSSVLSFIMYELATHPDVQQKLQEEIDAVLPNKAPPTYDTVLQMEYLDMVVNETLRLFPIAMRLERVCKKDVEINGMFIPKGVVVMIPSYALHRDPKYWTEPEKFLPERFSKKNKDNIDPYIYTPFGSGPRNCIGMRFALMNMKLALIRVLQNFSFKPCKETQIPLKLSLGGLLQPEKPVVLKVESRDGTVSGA
Chain of CYP3A5 (P20815 whole entry): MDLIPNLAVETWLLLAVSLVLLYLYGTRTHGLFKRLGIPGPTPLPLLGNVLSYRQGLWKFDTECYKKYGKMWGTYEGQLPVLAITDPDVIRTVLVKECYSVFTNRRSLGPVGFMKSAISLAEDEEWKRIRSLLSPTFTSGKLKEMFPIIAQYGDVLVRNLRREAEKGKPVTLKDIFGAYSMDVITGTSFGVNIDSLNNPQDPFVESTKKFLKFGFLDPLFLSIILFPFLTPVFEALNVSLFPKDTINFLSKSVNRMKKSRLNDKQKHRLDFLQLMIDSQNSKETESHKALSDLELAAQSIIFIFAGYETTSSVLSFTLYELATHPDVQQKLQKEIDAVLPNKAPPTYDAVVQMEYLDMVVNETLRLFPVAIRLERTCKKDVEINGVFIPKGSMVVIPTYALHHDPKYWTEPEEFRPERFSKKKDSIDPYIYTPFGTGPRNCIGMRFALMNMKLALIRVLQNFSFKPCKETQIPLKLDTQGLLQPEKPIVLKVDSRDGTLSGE

As to `C[C@]12CC[C@H](OS(=O)(=O)O)CC1=CC[C@@H]1[C@@H]2CC[C@]2(C)C(=O)CC[C@@H]12` [DHEA 3 sulfate conjugate], the position of oxidation result on CYP3A7 is listed as “exclusively on the 16α position”.

As to `C[C@]12CC[C@H]3[C@@H](CCC4=CC(=O)CC[C@@]43C)[C@@H]1CC[C@@H]2O` [testosterone], the position of oxidation entry on CYP3A5 is “almost exclusively in the 6β position”; on CYP3A4 it was “exclusively at the 6β position; also recorded: almost exclusively in the 6β position”; on CYP3A7 it was “both 6β and 16α position”.
